US8440638B2, “Compositions and methods for modulating calcium flux, glucose homeostasis and apoptosis” (Wisconsin Alumni Research Foundation, priority 2004, dated 2013)

Key:
OAADPr esterase = test: Cytoplasmic OAADPr esterase activity in HEK-293 cytoplasmic extract; format: biochemical
Description: (§1) Shown is the development of whole cell currents over time in TRPM2-expressing HEK-293 cells. Bath solution was standard ringer's, and pipette solution was Cs-based and included 10 mM EGTA to buffer intracellular Ca^2+ to 10 nM. The patch pipette contained various concentrations of (FIG. 1a) ADPr, (FIG. 1b) OAADPr (FIG. 1c) OAADPr and puromycin as indicated in the figure. FIG. 1d.) Cytoplasmic OAADPr esterase activity is inhibited by puromycin. 200 μM O-[^3H]AADPr and 0-100 μM puromycin were added to cytoplasmic HEK-293 extract for 30 min. Percent hydrolysis of O-[^3H]AADPr to [^3H]acetate was measured as described hereinbelow. FIG. 1e.) Nuclear OAADPr acetyltransferase activity is not inhibited by puromycin. HEK-293 nuclear extract was incubated with 200 μM O-[^3H]AADPr in the presence or absence of 100 μM puromycin for 60 min. The reactions were quenched and resolved by HPLC. The radioactivity in collected fractions was determined by liquid scintillation counting. FIGS. 1f-g.) In vivo detection of OAADPr. Mass spectrum of HEK-293 generated OAADPr (peak m/z of 602.0894; the theoretical m/z for OAADPr is 602.0895) after puromycin treatment, with authentic [^13C]-OAADPr (peak m/z of 603.0851 and isotopic distribution of 604.0878 and 605.0928) as a standard. Peak 599.3691 is from the matrix.
Cytoplasmic and nuclear extracts were prepared from HEK-293 cells as previously described (22). To detect esterase activity (22), cytoplasmic extract was incubated with 200 μM O-[^3H]AADPr in the presence of 0-100 μM puromycin for 30 min. Activated charcoal slurry in PBS, pH 7.0 was added to quench the reaction and bind O-[^3H]AADPr. Samples were vortexed and centrifuged. Aliquots of the supernatant containing [^3H]acetate were removed and analyzed by liquid scintillation counting. To detect nuclear OAADPr metabolizing activity (22), nuclear extract was incubated with 200 μM O-[^3H]AADPr in the presence or absence of 100 μM puromycin for 60 min. The reaction was terminated by addition of TFA to 1%. […] Radioactivity in each elution fraction was measured by liquid scintillation counting.

[1] = test system: cellular levels of OAADPr in HEK-293 cells; test: Detection of cellular OAADPr by HPLC fractionation and MALDI mass spectrometry; format: cell-based; conditions: puromycin-treated vs mock-treated HEK-293 cells
Description: as §1, with “matrix. […]” for “matrix.”

[2] = test system: TRPM2-expressing HEK-293 cells; test: Cell viability assay (calcein fluorescence), tet-inducible TRPM2 HEK-293 cells; format: cell-based
Description: Shown are HEK-293 cells (closed diamond) and HEK-293 cells stably transfected with a tet-controlled TRPM2 construct in the presence (open squares) or absence of (open diamonds) tetracycline. […] TRPM2-expressing HEK-293 cells were grown in complete DMEM media and 1 μg/ml tetracycline until 80-90% confluent. One set of cells were re-fed with the same complete media (closed diamonds) and the other set of cells were rinsed with PBS and fed with modified media containing 1 μg/ml tetracycline, 5 mM EGTA and without calcium chloride (open squares). […] HEK-293 (close diamond) and TRPM2 expressing HEK-293 cells in the absence (open diamond) or presence of (closed square) tetracycline were exposed to 0-10 μg/ml cycloheximide for 16 h. Cell viability was determined as described in (a).
TRPM2-expressing HEK-293 cells were exposed to 0-50 μM puromycin for 16 h in the presence (open diamond) or absence (closed diamond) of 500 μM nicotinamide. […] TRPM2-expressing HEK-293 cells were exposed to 0-50 μM puromycin for 16 h in the presence (open diamond) or absence (closed diamond) of 1.5 mM 3-aminobenzamide. Cell survival was determined as described in (a).
HEK-293 and tetracycline (tet)-inducible HEK-293 TRPM2-expressing cells (23) were cultured in DMEM and 10% FBS at 37° C., 5% CO2. Media used to culture tet-inducible HEK-293 cells was supplemented with blasticidin (5 μg ml^−1; Invitrogen) and zeocin (0.4 mg/ml; Invitrogen). To induce expression of TRPM2 in recombinant HEK-293 cells, tetracycline was added to the media at 1 μg ml^−1 (Invitrogen) 24 h prior to experiments. The CRI-G1 rat β-islet tumor cell line was obtained from EACC and cultured in DMEM, 10% FBS and 2 mM glutamine.
HEK-293, tet-inducible HEK-293, and CRI-G1 cells were seeded into 6 well plates at a density of 500,000 cells per well. When cells were 50-70% confluent, puromycin was added to the media at various concentrations for 16 hours. Cell monolayers were rinsed with PBS, after which 0.5 ml of 2 μM calcein in PBS was added directly to the well for 10-20 minutes. Calcein is retained in living, but not dead cells, where it undergoes catalytic conversion into a fluorescent compound Fluorescence in each well was measured in a microplate reader using excitation and emission filters at 485/530 nm, respectively.

pancreatic cells = conditions: not the result of inhibition of protein synthesis (ref. 47); cited from earlier work

With COc1ccc(C[C@H](N)C(=O)N[C@H]2[C@@H](O)[C@H](n3cnc4c(N(C)C)ncnc43)O[C@@H]2CO)cc1 [puromycin] the “inhibition of cytosolic esterase activity” value (OAADPr esterase; 5 μM puromycin) was “substantially inhibit”, the “inhibition of esterase activity” value (OAADPr esterase; 80 μM puromycin) was “completely inhibited” and the “inhibition of OAADPr esterase” value (OAADPr esterase; 200 μM O-[3H]AADPr, 0-100 μM puromycin, 30 min) was “potent inhibitor”. The “cellular levels of OAADPr after treatment” value [1] was “significantly detectable levels”, the “puromycin-induced cell death in Ca2+-free media” value ([2]; Ca2+ removed (5 mM EGTA) before puromycin 0-500 μM, 6 h) was “completely blocked” and the “puromycin-dependent cell death, TRPM2 not induced” value ([2]; TRPM2 expression not induced by tet) was “nearly complete protection”. For the same compound, the “puromycin-dependent cell death, TRPM2 not induced, highest level” value ([2]; not induced by tet, 50 μM puromycin) was “Some cell death”, the “cell death following puromycin treatment” value ([2]; tet-induced TRPM2 expression, as little as 5 μM, dose-dependence up to 50 μM, 16 h) was “profound sensitivity to cell death” and the “effect of puromycin treatment in whole rat” value (pancreatic cells) was “specific pancreatic cell death”.
